Target: ATP-dependent translocase ABCB1 (Homo sapiens, UniProt P08183)
Assay: TP_TRANSPORTER: transepithelial transport in Caco-2 cells
Type: functional, cell-based

Sequence of ATP-dependent translocase ABCB1 (P08183 whole entry): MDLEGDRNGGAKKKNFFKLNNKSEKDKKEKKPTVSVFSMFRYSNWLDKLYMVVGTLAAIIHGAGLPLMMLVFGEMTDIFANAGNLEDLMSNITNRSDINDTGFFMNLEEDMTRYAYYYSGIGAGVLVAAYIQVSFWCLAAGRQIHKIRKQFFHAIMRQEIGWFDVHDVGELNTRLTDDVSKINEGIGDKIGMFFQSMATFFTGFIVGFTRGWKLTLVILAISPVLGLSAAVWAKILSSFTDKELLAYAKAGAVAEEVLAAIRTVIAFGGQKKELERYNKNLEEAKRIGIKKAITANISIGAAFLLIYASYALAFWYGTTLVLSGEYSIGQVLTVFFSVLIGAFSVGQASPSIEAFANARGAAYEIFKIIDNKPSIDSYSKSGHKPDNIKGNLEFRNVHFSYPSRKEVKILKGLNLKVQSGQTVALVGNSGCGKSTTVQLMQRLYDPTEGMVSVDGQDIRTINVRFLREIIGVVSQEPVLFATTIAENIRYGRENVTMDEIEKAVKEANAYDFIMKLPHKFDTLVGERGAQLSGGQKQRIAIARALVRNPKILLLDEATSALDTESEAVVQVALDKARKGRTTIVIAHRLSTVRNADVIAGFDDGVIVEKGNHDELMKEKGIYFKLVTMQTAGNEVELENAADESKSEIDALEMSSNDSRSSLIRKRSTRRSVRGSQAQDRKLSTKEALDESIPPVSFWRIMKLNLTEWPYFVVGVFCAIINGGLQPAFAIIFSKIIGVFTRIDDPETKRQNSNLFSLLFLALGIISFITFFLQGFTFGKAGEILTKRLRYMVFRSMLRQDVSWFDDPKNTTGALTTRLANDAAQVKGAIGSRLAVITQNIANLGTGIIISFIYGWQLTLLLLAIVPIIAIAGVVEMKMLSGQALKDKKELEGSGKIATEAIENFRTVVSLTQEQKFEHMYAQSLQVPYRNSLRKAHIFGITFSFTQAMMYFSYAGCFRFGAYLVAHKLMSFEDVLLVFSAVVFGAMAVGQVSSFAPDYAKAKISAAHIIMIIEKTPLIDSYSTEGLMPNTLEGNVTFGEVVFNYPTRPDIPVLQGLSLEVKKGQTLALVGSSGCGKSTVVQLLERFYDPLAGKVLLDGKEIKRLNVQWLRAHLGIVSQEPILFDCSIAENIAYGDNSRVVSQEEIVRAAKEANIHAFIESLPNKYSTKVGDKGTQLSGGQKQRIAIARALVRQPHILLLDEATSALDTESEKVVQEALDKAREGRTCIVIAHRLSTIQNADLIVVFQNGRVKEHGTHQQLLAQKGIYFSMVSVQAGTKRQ

Row | Structure (SMILES) | Activity
1 | CCC(=C(c1ccc(O)cc1)c1ccc(OCCN(C)C)cc1)c1ccccc1 | is not a substrate [-]
2 | CC/C(=C(\c1ccccc1)c1ccc(OCCN)cc1)c1ccccc1 [DESMETHYL TAMOXIFEN] | is not a substrate [-]
